Source: patent publication EP0582261A1, “Cephalosporin compounds and processes for the preparation thereof” (LUCKY LTD., priority 1992, dated 1994)

Tests used:
Assay in all cases: MIC, two-fold dilution method on Müller-Hinton agar
Format in all cases: cell-based
Settings in all cases: incubated at 37°C for 20 hours
[1] = system: Micrococcus luteus ATCC 9341
Experimental: (§1) The same procedures as described in Example 163 were repeated using 7-amino-1,8-dimethyl[1,3]imidazo[1,2-c] pyrimidine-5-thione prepared in Preparation Example 36 in place of 7-amino-1-methyl[1,3]imidazo[1,2-c]pyrimidine-5-thione to yield 190mg and 180mg of the title compound(a) and (b), respectively, as white solids.
(§2) These MIC values were taken by employing a two-fold dilution method: that is, two-fold serial dilutions of each of the test compounds were made and dispersed in a Müller-Hinton agar medium; 2µl of the standard test strain which had the 10⁷ CFU(Colony Forming Unit) per ml was inoculated on the medium; and these were incubated at 37°C for 20 hours.

[2] = system: Citrobacter freundii ATCC 8090
Experimental: as §1, §2

[3] = system: Streptococcus faecalis ATCC 29212
Experimental: as §1, §2

[4] = system: Shigella flexneri ATCC 11836
Experimental: as §1, §2

[5] = system: Salmonella typhimurium ATCC 14028
Experimental: as §1, §2

[6] = system: Acinetobacter calcoaceticus ATCC 15473
Experimental: as §1, §2

[7] = system: Staphylococcus aureus ATCC 6538p
Experimental: as §1, §2

[8] = system: Bacillus cereus ATCC 11778
Experimental: as §1, §2

[9] = system: Providencia rettgeri ATCC 9250
Experimental: as §1, §2

[10] = system: Morganella morganii ATCC 8076h
Experimental: as §1, §2

[11] = system: Shigella sonnei ATCC 11060
Experimental: as §1, §2

[12] = system: Pseudomonas aeruginosa ATCC 25619
Experimental: as §1, §2

[13] = system: Staphylococcus aureus ATCC 10537
Experimental: as §1, §2

[14] = system: Escherichia coli ATCC 10536
Experimental: as §1, §2

[15] = system: Staphylococcus epidermidis ATCC 12228
Experimental: as §1, §2

[16] = system: Enterobacter aerogenes ATCC 29751
Experimental: as §1, §2

[17] = system: Bacillus megaterium ATCC 9885
Experimental: as §1, §2

[18] = system: Pseudomonas aeruginosa ATCC 27853
Experimental: as §1, §2

[19] = system: Pseudomonas aeruginosa ATCC 10145
Experimental: as §1, §2

[20] = system: Proteus mirabilis ATCC 25933
Experimental: as §1, §2

[21] = system: Proteus vulgaris ATCC 6059
Experimental: as §1, §2

[22] = system: Enterobacter cloacae ATCC 27508
Experimental: as §1, §2

[23] = system: Serratia marcescens ATCC 27117
Experimental: as §1, §2

[24] = system: Escherichia coli ATCC 25922
Experimental: as §1, §2

[25] = system: Klebsiella pneumoniae ATCC 10031
Experimental: as §1, §2

Row | Substance | MIC values against the standard strains [1] | MIC values against the standard strains [2] | MIC values against the standard strains [3] | MIC values against the standard strains [4] | MIC values against the standard strains [5] | MIC values against the standard strains [6] | MIC values against the standard strains [7] | MIC values against the standard strains [8] | MIC values against the standard strains [9] | MIC values against the standard strains [10] | MIC values against the standard strains [11] | MIC values against the standard strains [12] | MIC values against the standard strains [13] | MIC values against the standard strains [14] | MIC values against the standard strains [15] | MIC values against the standard strains [16] | MIC values against the standard strains [17] | MIC values against the standard strains [18] | MIC values against the standard strains [19] | MIC values against the standard strains [20] | also measured
1 | 7-[(Z)-2-(2-aminothiazol-4-yl)-2-(1-carboxycyclopentoxyimino)acetamido]-3-(2,7-diamino-1-methyl [1,2,4]triazolo[1,5-c]pyrimidinium-5-yl)thiomethyl-3-cephem-4-carboxylate [Exp. 84] | 0.016 µg/mL | 0.063 µg/mL | 32 µg/mL | 0.063 µg/mL | 0.13 µg/mL | 2 µg/mL | 0.25 µg/mL | 32 µg/mL | ≤0.008 µg/mL | ≤0.008 µg/mL | 0.13 µg/mL | 1 µg/mL | 0.25 µg/mL | 0.063 µg/mL | 0.5 µg/mL | 0.25 µg/mL | 0.25 µg/mL | 1 µg/mL | 2 µg/mL | 0.063 µg/mL | MIC values against the standard strains [21]: 0.063 µg/mL; MIC values against the standard strains [22]: ≤0.008 µg/mL; MIC values against the standard strains [23]: 0.13 µg/mL; MIC values against the standard strains [24]: 0.063 µg/mL; MIC values against the standard strains [25]: 0.063 µg/mL
2 | 7-[(Z)-2-(2-aminothiazol-4-yl)-2-(2-carboxyprop-2-oxyimino)acetamido]-3-(7-amino-1-methyl [1,2,4]triazolo[1,5-c]pyrimidinium-5-yl)thiomethyl-3-cephem-4-carboxylate [Exp. 1] | 0.13 µg/mL | 0.13 µg/mL | >128 µg/mL | 0.031 µg/mL | 0.25 µg/mL | 4 µg/mL | 4 µg/mL | 128 µg/mL | ≤0.008 µg/mL | ≤0.008 µg/mL | 0.13 µg/mL | 1 µg/mL | 4 µg/mL | 0.063 µg/mL | 1 µg/mL | 1 µg/mL | 0.25 µg/mL | 1 µg/mL | 2 µg/mL | 0.13 µg/mL | MIC values against the standard strains [21]: 0.063 µg/mL; MIC values against the standard strains [22]: 0.016 µg/mL; MIC values against the standard strains [23]: 0.25 µg/mL; MIC values against the standard strains [24]: 0.13 µg/mL; MIC values against the standard strains [25]: 0.063 µg/mL
3 | 7-[(Z)-2-(2-aminothiazol-4-yl)-2-((R)-1-carboxyprop-1-oxyimino)acetamido]-3-(2,7-diamino-1-methyl[1,2,4]triazolo[1,5-c]pyrimidinium-5-yl)thiomethyl-3-cephem-4-carboxylate [Exp. 88] | ≤0.008 µg/mL | 0.13 µg/mL | 8 µg/mL | 0.031 µg/mL | 0.13 µg/mL | 1 µg/mL | 0.13 µg/mL | 8 µg/mL | ≤0.008 µg/mL | ≤0.008 µg/mL | 0.063 µg/mL | 0.5 µg/mL | 0.13 µg/mL | 0.13 µg/mL | 0.031 µg/mL | 0.13 µg/mL | 0.031 µg/mL | 1 µg/mL | 1 µg/mL | 0.13 µg/mL | MIC values against the standard strains [21]: 0.063 µg/mL; MIC values against the standard strains [22]: ≤0.008 µg/mL; MIC values against the standard strains [23]: 0.25 µg/mL; MIC values against the standard strains [24]: 0.063 µg/mL; MIC values against the standard strains [25]: ≤0.008 µg/mL
4 | 7-[(Z)-2-(2-aminothiazol-4-yl)-2-((R)-1-carboxyprop-1-oxyimino)acetamido]-3-(7-amino-1-methyl [1,2,4]triazolo[1,5-c]pyrimidinium-5-yl)thiomethyl-3-cephem-4-carboxylate [Exp. 86] | ≤0.008 µg/mL | 0.13 µg/mL | 16 µg/mL | 0.031 µg/mL | 0.25 µg/mL | 2 µg/mL | 0.13 µg/mL | 16 µg/mL | ≤0.008 µg/mL | ≤0.008 µg/mL | 0.063 µg/mL | 1 µg/mL | 0.13 µg/mL | 0.13 µg/mL | 0.25 µg/mL | 0.25 µg/mL | 0.031 µg/mL | 1 µg/mL | 2 µg/mL | 0.13 µg/mL | MIC values against the standard strains [21]: 0.13 µg/mL; MIC values against the standard strains [22]: ≤0.008 µg/mL; MIC values against the standard strains [23]: 0.25 µg/mL; MIC values against the standard strains [24]: 0.063 µg/mL; MIC values against the standard strains [25]: ≤0.008 µg/mL
5 | 7-[(Z)-2-(2-aminothiazol-4-yl)-2-((S-1-carboxyeth-1-oxyimino)acetamido]-3-(7-amino-1-methyl [1,2,4]triazolo[1,5-c]pyrimidinium-5-yl)thiomethyl-3-cephem-4-carboxylate [Exp. 22(S)] | 0.13 µg/mL | 0.063 µg/mL | >128 µg/mL | 0.13 µg/mL | 0.25 µg/mL | 4 µg/mL | 4 µg/mL | 128 µg/mL | ≤0.008 µg/mL | ≤0.008 µg/mL | 0.063 µg/mL | 1 µg/mL | 2 µg/mL | 0.031 µg/mL | 1 µg/mL | 0.5 µg/mL | 0.25 µg/mL | 2 µg/mL | 2 µg/mL | 0.25 µg/mL | MIC values against the standard strains [21]: 0.31 µg/mL; MIC values against the standard strains [22]: 0.016 µg/mL; MIC values against the standard strains [23]: 0.13 µg/mL; MIC values against the standard strains [24]: 0.13 µg/mL; MIC values against the standard strains [25]: 0.031 µg/mL
